ChEMBL document CHEMBL5465560, “Selectivity Literature for EUbOPEN Chemogenomic Library” (2024)
Blank lines part the entries; values can stand above or below the molecule they belong to.

How the values were obtained:
D(2) dopamine receptor = D(2) dopamine receptor (Homo sapiens, UniProt P14416); assay: Selectivity interaction (GPCR panel (PDSP screen)) EUB0001492b DRD2; conditions: at 10 µM
[1] = molecular target: Beta-3 adrenergic receptor (Homo sapiens) (UniProt P13945); assay: Selectivity interaction (GPCR panel (PDSP screen)) EUB0001492b ADRB3; conditions: at 10 µM
[2] = molecular target: Cyclin-G-associated kinase (Homo sapiens, UniProt O14976); assay: Selectivity interaction (Kinase panel (enzymatic assay, literature)) EUB0001492b GAK
D(3) dopamine receptor = D(3) dopamine receptor (Homo sapiens, UniProt P35462); assay: Selectivity interaction (GPCR panel (PDSP screen)) EUB0001492b DRD3; conditions: at 10 µM
[3] = molecular target: Alpha-1D adrenergic receptor (Homo sapiens) (UniProt P25100); assay: Selectivity interaction (GPCR panel (PDSP screen)) EUB0001492b ADRA1D; conditions: at 10 µM
[4] = molecular target: T1, 4-aminobutyrate aminotransferase, mitochondrial (Homo sapiens, UniProt P80404); assay: (§1) Selectivity interaction (GPCR panel (PDSP screen)) EUB0001492b ABAT
T1 sequence (P80404 whole entry): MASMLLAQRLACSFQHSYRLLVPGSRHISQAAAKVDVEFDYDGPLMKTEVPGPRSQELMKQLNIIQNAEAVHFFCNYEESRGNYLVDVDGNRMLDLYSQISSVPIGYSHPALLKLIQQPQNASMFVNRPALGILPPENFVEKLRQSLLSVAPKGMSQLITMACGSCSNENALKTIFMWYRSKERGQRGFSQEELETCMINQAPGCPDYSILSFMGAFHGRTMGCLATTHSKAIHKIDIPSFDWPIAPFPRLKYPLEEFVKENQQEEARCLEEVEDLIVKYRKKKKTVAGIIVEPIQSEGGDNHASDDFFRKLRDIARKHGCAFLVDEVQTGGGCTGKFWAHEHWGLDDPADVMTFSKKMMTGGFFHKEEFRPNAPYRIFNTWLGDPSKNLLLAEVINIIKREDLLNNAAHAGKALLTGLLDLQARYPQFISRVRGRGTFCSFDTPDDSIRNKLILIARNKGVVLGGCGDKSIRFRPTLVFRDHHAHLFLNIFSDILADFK

[5] = molecular target: AP2-associated protein kinase 1 (Homo sapiens, UniProt Q2M2I8); assay: Selectivity interaction (Kinase panel (enzymatic assay, literature)) EUB0001492b AAK1
[6] = molecular target: D(4) dopamine receptor (Homo sapiens) (UniProt P21917); assay: Selectivity interaction (GPCR panel (PDSP screen)) EUB0001492b DRD4; conditions: at 10 µM
[7] = molecular target: Interleukin-1 receptor-associated kinase 3 (Homo sapiens, UniProt Q9Y616); assay: Selectivity interaction (NanoBRET assay (in HEK293T cells)) EUB0001492b IRAK3; format: cell-based, HEK-293T
[8] = molecular target: T2, 5-hydroxytryptamine receptor 1A (Homo sapiens) (UniProt P08908); assay: Selectivity interaction (GPCR panel (PDSP screen)) EUB0001492b HTR1A; conditions: at 10 µM
T2 sequence (whole entry): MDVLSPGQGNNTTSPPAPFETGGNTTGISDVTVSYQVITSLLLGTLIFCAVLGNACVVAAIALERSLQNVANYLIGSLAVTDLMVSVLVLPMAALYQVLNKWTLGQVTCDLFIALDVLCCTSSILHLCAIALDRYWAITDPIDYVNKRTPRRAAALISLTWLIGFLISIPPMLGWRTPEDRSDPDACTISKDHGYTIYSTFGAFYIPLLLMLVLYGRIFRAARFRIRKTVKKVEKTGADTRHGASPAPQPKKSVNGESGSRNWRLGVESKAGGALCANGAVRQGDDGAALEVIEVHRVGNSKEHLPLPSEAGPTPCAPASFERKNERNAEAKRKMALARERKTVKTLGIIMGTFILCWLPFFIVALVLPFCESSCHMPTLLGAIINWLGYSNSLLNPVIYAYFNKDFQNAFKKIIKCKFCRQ

[9] = molecular target: 5-hydroxytryptamine receptor 7 (Homo sapiens) (UniProt P34969); assay: Selectivity interaction (GPCR panel (PDSP screen)) EUB0001492b HTR7; conditions: at 10 µM
[10] = molecular target: T3, Gamma-aminobutyric acid receptor subunit alpha-1 (Homo sapiens) (UniProt P14867); assay: Selectivity interaction (GPCR panel (PDSP screen)) EUB0001492b GABRA1; conditions: at 10 µM
T3 sequence (whole entry): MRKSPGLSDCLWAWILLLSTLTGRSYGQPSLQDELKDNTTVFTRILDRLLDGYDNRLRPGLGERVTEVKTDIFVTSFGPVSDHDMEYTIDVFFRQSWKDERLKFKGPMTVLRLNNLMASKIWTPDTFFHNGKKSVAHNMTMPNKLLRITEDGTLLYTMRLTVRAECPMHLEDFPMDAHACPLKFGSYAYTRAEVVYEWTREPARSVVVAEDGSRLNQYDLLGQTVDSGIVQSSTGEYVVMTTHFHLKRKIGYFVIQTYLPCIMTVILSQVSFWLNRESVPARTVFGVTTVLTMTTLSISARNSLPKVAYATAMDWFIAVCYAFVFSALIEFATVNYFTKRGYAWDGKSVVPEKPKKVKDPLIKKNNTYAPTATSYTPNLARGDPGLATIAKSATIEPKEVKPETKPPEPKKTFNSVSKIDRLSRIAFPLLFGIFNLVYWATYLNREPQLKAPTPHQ

[11] = molecular target: 5-hydroxytryptamine receptor 1D (Homo sapiens) (UniProt P28221); assay: Selectivity interaction (GPCR panel (PDSP screen)) EUB0001492b HTR1D; conditions: at 10 µM
D(1A) dopamine receptor = D(1A) dopamine receptor (Homo sapiens, UniProt P21728); assay: Selectivity interaction (GPCR panel (PDSP screen)) EUB0001492b DRD1; conditions: at 10 µM
[12] = molecular target: T1, 4-aminobutyrate aminotransferase, mitochondrial; assay: as §1; conditions: at 10 µM
[13] = molecular target: Muscarinic acetylcholine receptor M3 (Homo sapiens, UniProt P20309); assay: Selectivity interaction (GPCR panel (PDSP screen)) EUB0001492b CHRM3; conditions: at 10 µM
[14] = molecular target: T4, Alpha-1A adrenergic receptor (Homo sapiens) (UniProt P35348); assay: Selectivity interaction (GPCR panel (PDSP screen)) EUB0001492b ADRA1A; conditions: at 10 µM
T4 sequence (whole entry): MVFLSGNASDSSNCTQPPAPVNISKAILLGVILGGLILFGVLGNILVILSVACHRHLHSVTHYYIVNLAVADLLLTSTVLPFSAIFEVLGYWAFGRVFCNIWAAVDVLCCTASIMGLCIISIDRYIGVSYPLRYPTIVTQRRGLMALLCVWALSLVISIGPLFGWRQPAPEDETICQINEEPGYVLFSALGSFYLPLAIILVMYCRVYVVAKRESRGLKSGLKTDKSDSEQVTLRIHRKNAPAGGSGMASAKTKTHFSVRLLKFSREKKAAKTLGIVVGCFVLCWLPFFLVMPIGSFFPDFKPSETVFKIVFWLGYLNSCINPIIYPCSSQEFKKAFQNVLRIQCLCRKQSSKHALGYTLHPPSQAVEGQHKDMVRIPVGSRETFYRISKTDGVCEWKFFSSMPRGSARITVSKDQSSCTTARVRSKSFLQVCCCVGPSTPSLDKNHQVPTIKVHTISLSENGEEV

[15] = molecular target: T5, Alpha-2C adrenergic receptor (Homo sapiens) (UniProt P18825); assay: Selectivity interaction (GPCR panel (PDSP screen)) EUB0001492b ADRA2C; conditions: at 10 µM
T5 sequence (whole entry): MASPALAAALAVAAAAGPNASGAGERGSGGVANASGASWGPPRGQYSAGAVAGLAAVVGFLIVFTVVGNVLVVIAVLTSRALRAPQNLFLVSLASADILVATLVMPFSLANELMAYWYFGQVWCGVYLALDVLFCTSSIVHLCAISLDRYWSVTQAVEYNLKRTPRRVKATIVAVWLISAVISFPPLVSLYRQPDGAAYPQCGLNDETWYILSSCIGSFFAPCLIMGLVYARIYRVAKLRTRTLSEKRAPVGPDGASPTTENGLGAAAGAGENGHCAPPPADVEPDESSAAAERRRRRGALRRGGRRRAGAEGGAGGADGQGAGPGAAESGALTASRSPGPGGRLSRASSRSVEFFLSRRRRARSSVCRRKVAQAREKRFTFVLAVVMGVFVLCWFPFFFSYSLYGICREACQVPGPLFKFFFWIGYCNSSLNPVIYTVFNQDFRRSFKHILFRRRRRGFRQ

[16] = molecular target: RAC-gamma serine/threonine-protein kinase (Homo sapiens, UniProt Q9Y243); assay: Selectivity interaction (NanoBRET assay (HEK293T cells)) EUB0001563a AKT3; format: cell-based; conditions: hek-293t
RAC-gamma serine/threonine-protein kinase, sequence (Q9Y243 whole entry): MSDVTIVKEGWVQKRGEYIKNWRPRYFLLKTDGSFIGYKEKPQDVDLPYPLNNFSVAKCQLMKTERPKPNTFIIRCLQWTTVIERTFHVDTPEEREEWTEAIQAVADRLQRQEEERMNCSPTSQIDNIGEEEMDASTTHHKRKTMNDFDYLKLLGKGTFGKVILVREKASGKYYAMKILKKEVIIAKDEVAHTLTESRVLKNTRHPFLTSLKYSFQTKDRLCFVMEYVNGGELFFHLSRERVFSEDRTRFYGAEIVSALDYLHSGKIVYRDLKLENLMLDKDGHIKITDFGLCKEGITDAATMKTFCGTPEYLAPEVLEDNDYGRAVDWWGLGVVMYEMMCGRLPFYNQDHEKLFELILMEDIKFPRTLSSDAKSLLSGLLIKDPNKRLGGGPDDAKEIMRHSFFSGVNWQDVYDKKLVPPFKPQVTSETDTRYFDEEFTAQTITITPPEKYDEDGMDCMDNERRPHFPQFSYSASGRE

[17] = molecular target: 3',5'-cyclic-AMP phosphodiesterase 4A (Homo sapiens, UniProt P27815); assay: Selectivity interaction (Eurofins-Panlabs Screen) EUB0001548a PDE4A; conditions: at 10 µM
[18] = molecular target: T3, Gamma-aminobutyric acid receptor subunit alpha-1 (Homo sapiens); assay: Selectivity interaction (Eurofins-Panlabs Screen) EUB0001548a GABRA1; conditions: at 10 µM
[19] = molecular target: Sodium channel protein type 2 subunit alpha (Homo sapiens) (UniProt Q99250); assay: Selectivity interaction (Eurofins-Panlabs Screen) EUB0001548a SCN2A; conditions: at 10 µM
Sodium channel protein type 2 subunit alpha (Homo sapiens), sequence (Q99250 whole entry, looked up): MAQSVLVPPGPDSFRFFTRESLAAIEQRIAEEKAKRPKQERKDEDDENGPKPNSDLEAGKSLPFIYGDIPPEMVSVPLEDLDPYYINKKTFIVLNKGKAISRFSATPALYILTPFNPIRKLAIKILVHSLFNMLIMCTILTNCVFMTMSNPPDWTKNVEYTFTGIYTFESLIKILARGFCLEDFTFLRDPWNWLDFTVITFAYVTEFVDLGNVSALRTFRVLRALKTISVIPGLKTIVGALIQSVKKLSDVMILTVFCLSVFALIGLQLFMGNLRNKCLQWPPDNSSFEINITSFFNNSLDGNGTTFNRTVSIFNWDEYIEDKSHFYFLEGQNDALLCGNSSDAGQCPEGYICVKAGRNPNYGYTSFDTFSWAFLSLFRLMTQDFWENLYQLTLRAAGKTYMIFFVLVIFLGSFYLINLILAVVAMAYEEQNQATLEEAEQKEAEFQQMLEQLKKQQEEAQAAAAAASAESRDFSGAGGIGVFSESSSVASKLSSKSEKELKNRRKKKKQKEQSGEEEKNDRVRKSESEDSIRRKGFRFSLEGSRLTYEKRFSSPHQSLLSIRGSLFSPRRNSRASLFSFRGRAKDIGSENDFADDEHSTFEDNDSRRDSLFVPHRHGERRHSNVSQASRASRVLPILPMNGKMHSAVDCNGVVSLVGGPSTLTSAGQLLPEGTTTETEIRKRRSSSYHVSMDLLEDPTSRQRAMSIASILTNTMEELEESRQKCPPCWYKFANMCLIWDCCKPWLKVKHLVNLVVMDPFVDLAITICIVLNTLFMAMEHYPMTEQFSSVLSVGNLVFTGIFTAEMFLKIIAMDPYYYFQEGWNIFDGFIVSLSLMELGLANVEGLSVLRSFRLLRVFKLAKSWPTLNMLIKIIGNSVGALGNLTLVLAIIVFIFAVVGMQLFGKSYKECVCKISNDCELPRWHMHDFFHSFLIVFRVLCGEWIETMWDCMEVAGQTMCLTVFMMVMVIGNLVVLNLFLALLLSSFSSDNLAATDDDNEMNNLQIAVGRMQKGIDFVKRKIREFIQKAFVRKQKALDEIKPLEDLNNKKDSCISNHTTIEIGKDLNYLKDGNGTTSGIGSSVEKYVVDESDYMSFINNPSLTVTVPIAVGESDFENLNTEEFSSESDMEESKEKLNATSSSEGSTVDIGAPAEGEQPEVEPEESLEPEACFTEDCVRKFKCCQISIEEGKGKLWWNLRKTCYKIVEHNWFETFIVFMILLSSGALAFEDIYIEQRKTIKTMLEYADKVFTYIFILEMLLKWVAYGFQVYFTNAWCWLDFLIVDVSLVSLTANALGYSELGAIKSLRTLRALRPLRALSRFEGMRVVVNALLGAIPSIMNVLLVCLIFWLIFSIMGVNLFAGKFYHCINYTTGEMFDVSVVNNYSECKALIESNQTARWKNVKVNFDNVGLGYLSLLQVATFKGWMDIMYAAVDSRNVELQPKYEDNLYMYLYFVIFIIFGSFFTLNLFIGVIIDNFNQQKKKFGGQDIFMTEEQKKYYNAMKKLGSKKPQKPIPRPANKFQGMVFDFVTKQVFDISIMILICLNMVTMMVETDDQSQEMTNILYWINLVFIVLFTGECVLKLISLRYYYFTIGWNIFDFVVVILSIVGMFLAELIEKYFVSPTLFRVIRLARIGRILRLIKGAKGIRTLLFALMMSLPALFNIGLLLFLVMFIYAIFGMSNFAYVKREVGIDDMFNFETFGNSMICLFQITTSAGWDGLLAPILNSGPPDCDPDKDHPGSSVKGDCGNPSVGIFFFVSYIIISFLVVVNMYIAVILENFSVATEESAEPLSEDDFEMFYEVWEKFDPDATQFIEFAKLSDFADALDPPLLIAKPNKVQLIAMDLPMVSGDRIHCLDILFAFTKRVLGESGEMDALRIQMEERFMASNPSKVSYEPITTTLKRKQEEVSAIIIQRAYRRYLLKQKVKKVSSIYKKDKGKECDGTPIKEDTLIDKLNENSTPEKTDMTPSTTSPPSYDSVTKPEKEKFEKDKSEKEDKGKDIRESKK

[20] = molecular target: Serine/threonine-protein kinase 10 (Homo sapiens) (UniProt O94804); assay: Selectivity interaction (KinomeScan (DiscoverX)) EUB0001548a STK10; conditions: at 1 µM
[21] = molecular target: T6, Dual specificity tyrosine-phosphorylation-regulated kinase 1B (Homo sapiens, UniProt Q9Y463); assay: Selectivity interaction (Kinome Scan (DiscoverX, competition binding assay)) EUB0001548a DYRK1B
[22] = molecular target: T7, Mitotic checkpoint serine/threonine-protein kinase BUB1 (Homo sapiens, UniProt O43683); assay: Selectivity interaction (KinomeScan (DiscoverX, competition binding assay)) EUB0001548a BUB1
T7 sequence (O43683 whole entry): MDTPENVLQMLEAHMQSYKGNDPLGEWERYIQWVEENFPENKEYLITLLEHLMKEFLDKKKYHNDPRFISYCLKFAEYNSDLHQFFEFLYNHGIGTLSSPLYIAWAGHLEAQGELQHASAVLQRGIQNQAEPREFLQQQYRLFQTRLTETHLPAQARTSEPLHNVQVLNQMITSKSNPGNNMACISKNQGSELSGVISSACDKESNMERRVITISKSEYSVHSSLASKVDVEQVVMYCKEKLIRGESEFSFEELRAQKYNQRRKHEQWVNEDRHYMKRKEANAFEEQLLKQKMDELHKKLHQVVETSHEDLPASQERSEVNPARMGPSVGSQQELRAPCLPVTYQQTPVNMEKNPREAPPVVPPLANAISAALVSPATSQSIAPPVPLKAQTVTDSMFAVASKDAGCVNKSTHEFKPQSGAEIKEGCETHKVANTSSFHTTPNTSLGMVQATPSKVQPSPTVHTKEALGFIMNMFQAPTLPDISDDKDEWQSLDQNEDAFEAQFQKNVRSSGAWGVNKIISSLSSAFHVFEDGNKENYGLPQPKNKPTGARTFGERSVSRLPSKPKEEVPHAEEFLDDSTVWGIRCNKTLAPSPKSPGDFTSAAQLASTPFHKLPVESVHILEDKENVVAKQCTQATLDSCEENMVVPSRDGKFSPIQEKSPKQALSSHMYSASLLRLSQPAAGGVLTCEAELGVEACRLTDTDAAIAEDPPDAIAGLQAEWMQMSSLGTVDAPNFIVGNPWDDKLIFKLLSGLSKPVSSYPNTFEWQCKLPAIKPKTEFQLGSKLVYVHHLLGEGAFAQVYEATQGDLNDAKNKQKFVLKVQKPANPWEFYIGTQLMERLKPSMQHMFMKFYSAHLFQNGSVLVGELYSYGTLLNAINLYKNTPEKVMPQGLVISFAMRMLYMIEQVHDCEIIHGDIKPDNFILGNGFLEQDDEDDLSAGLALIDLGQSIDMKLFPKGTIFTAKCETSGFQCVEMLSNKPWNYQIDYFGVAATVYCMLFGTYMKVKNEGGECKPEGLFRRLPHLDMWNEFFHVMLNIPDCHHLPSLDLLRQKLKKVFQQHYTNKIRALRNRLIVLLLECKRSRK

[23] = molecular target: T6, Dual specificity tyrosine-phosphorylation-regulated kinase 1B; assay: Selectivity interaction (KinomeScan (DiscoverX)) EUB0001548a DYRK1B; conditions: at 1 µM
[24] = molecular target: Prostaglandin G/H synthase 1 (Homo sapiens) (UniProt P23219); assay: Selectivity interaction (Eurofins-Panlabs Screen) EUB0001548a PTGS1; conditions: at 10 µM
[25] = molecular target: Sodium/nucleoside cotransporter 1 (Homo sapiens, UniProt O00337); assay: Selectivity interaction (Eurofins-Panlabs Screen (enzymatic assay)) EUB0001548a SLC28A1
[26] = molecular target: T7, Mitotic checkpoint serine/threonine-protein kinase BUB1; assay: Selectivity interaction (TR-FRET kinase assay ) EUB0001548a BUB1
Adenosine receptor A2a = Adenosine receptor A2a (Homo sapiens, UniProt P29274); assay: Selectivity interaction (Eurofins-Panlabs Screen) EUB0001548a ADORA2A; conditions: at 10 µM
Adenosine receptor A2a, sequence (P29274 whole entry): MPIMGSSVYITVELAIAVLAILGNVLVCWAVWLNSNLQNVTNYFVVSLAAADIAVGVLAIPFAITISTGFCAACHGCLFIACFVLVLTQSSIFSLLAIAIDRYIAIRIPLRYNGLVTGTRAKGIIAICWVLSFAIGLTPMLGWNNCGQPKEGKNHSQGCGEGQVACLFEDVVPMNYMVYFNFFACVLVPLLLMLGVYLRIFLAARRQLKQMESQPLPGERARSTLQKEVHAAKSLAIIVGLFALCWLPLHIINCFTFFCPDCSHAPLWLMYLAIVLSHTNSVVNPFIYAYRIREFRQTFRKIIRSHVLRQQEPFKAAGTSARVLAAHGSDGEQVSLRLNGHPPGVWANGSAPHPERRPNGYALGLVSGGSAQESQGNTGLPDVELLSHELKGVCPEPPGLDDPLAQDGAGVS

[27] = molecular target: Sodium/nucleoside cotransporter 1 (Homo sapiens) (UniProt O00337); assay: Selectivity interaction (Eurofins-Panlabs Screen) EUB0001548a SLC28A1; conditions: at 10 µM
[28] = molecular target: T7, Mitotic checkpoint serine/threonine-protein kinase BUB1; assay: Selectivity interaction (Kinase panel (literature)) EUB0001549a BUB1
[29] = molecular target: Serine/threonine-protein kinase 17B (Homo sapiens, UniProt O94768); assay: Selectivity interaction (KinomeScan (competition-binding assay, DiscoverX)) EUB0001547a STK17B
[30] = molecular target: Death-associated protein kinase 1 (Homo sapiens, UniProt P53355); assay: Selectivity interaction (KinomeScan (DiscoverX, competition-binding assay)) EUB0001547a DAPK1
[31] = molecular target: Cyclin-dependent kinase 7 (Homo sapiens, UniProt P50613); assay: Selectivity interaction (KinomeScan (DiscoverX, competition-binding assay)) EUB0001547a CDK7
[32] = molecular target: Mitogen-activated protein kinase 15 (Homo sapiens, UniProt Q8TD08); assay: Selectivity interaction (KinomeScan (DiscoverX, competition binding assay)) EUB0001547a MAPK15
[33] = molecular target: Calcium/calmodulin-dependent protein kinase type IV (Homo sapiens, UniProt Q16566); assay: Selectivity interaction (KinomeScan (DiscoverX, competition-binding assay)) EUB0001547a CAMK4
[34] = molecular target: Homeodomain-interacting protein kinase 3 (Homo sapiens, UniProt Q9H422); assay: Selectivity interaction (KinomeScan (DiscoverX, competition-binding assay)) EUB0001547a HIPK3

D(2) dopamine receptor, sequence (P14416 whole entry): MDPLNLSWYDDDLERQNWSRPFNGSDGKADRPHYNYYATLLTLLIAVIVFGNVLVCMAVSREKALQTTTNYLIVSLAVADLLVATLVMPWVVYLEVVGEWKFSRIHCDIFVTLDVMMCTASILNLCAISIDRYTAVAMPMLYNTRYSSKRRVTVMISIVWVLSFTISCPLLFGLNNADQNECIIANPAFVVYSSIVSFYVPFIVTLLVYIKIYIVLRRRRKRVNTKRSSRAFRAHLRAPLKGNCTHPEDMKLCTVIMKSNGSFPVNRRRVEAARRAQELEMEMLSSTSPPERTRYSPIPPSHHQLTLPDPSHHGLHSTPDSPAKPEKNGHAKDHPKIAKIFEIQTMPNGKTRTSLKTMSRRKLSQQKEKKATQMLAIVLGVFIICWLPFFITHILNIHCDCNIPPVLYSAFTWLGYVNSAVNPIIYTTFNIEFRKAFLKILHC

- % of inhibition (D(2) dopamine receptor): 69.8%
- % of inhibition [1]: 18%
- IC50 [2]: 272 nM
- % of inhibition (D(3) dopamine receptor): 51.5%
- % of inhibition [3]: 36.7%
- Ki [4]: 2620 nM
- IC50 [5]: 188 nM
- % of inhibition [6]: 44.6%
- IC50 [7]: > 20000 nM
- % of inhibition [8]: 14.4%
- % of inhibition [9]: 13.7%
- % of inhibition [10]: 34.5%
- % of inhibition [11]: 26.9%
- % of inhibition (D(1A) dopamine receptor): 25.7%
- % of inhibition [12]: 51.8%
- % of inhibition [13]: 21.1%
- % of inhibition [14]: 18.9%
- % of inhibition [15]: 13.7%
Compound: CCC(F)(F)c1cc(N2CCC(S(C)(=O)=O)CC2)nc2sc(C(N)=O)c(N)c12 [BI-605906]

Compound: C=CC(=O)Nc1ccc2[nH]c(=O)n(C3CCN(Cc4ccc(-c5ccc6c(c5)NC(=O)CO6)cc4)CC3)c2c1 [RL2578]
- IC50 [16]: 18000 nM

- % of inhibition [17]: 52%
- % of inhibition [18]: 60%
- % of inhibition [19]: 53%
- % of control [20]: 0.6%
- Kd [21]: > 30000 nM
- IC50 [22]: 3.3 nM
- % of control [23]: 6.7%
- % of inhibition [24]: 54%
- IC50 [25]: 370 nM
- IC50 [26]: 4.3 nM
- % of inhibition (Adenosine receptor A2a): 67%
- % of inhibition [27]: 71%
Compound: COc1cnccc1Nc1nc(-c2nn(Cc3c(F)cc(OCCO)cc3F)c3ccccc23)ncc1OC

- IC50 [28]: > 20000 nM
Compound: COc1ccccc1Nc1nc(-c2nn(Cc3c(F)cc(OCCCO)cc3F)c3ccccc23)ncc1OC

- Kd [29]: 930 nM
- Kd [31]: 38 nM
- Kd [33]: 360 nM
- Kd [34]: 480 nM
Compound: N[C@@H]1CCCN(c2c(/C=C3\SC(=O)NC3=O)cccc2-c2ccccc2)C1
- Kd [30]: 420 nM
- Kd [32]: 5 nM
